# Experimental data published in patent US10766940B2, “Brain penetrant amylin receptor based peptides for Alzheimer's disease” (The Governors of the University of Alberta, priority 2016, dated 2020).
# Residues, ends and D or L forms follow the SMILES beside them. No end group written: not given here.
# Experiments:
# [1] = system: human fetal neurons (HFNs); assay: Aβ1-42 cytotoxicity (MTT, live/dead) in human fetal neurons; type: cell-based; conditions: for block of Aβ1-42 triggered cell death, human fetal neuronal cells (MTT): Aβ1-42 20 μM
# Method: (§1) b) To investigate the antagonistic activity of peptides against Aβ cytotoxicity in vitro, HFNs and N2a cells were used. Cells were seeded to 5000 cells/well in a 96-well plate in MEM-10% FBS and DMEM/OptiMEM-5% FBS for overnight. […] At the end of treatment, 20 μl of 5 mg/ml methylthiazolyldiphenyl-tetrazolium bromide (MTT) was added to each well, and incubated at 37° C. for 3 hours. Medium was removed, 100 μl of MTT solvent (isopropanol with 4 mM HCl) added to each well, and the plates were incubated for 30 minutes at room temperature on a rotating shaker. Plates were analyzed on a microplate reader at a 562-nm wavelength. The Live/Dead assay kit was purchased from Invitrogen and assay followed the production instruction. The assayed cells were fixed with 4% paraformaldehyde in PBS and photo imaged with Axio Zeiss fluorescent microscopy. The dead cells were further counted using ImageJ software.
# (§2) f) To investigate the antagonistic activity of peptide fragments against Aβ cytotoxicity in vitro, (human fetal neurons) HFNs, human neuroblastoma, SK-N-SH cells and N2a mouse neuroblastoma cells were used. Cells were seeded to 5000 cells/well in a 96-well plate in MEM-10% FBS and DMEM/OptiMEM-5% FBS for overnight. Cells in culture media were preincubated for 8 h with or without AC253 or fragments R5, R14, R11, and followed by treatment with Aβ1-42 for 24 h. At the end of treatment, 20 μl of 5 mg/ml methylthiazolyldiphenyl-tetrazolium bromide (MTT) was added to each well, and incubated at 37° C. for 3 h. Medium was removed, 100 μl of MTT solvent (isopropanol with 4 mM HCl) added to each well, and the plates were incubated for 30 min at room temperature on a rotating shaker. Plates were analyzed on a microplate reader at a 562-nm wavelength.
# [2] = system: human neuroblastoma, SK-N-SH cells; assay: Aβ1-42 cytotoxicity (MTT) in SK-N-SH cells; type: cell-based; conditions: Aβ1-42 20 μM
# Method: as §2
# [3] = target: T1, AMY3 receptor (HEK293-AMY3 cells) (Homo sapiens, UniProt O60896+P30988); assay: Flow cytometry binding and uptake of Cy5 labeled peptides in AMY3-HEK cells; type: cell-based; conditions: for flow cytometry binding to HEK293-AMY3 cells: 10 μM
# T1 construct: expressed in transfected cells; AMY3-293 / AMY3-HEK)
# T1 sequence (P30988 25-474): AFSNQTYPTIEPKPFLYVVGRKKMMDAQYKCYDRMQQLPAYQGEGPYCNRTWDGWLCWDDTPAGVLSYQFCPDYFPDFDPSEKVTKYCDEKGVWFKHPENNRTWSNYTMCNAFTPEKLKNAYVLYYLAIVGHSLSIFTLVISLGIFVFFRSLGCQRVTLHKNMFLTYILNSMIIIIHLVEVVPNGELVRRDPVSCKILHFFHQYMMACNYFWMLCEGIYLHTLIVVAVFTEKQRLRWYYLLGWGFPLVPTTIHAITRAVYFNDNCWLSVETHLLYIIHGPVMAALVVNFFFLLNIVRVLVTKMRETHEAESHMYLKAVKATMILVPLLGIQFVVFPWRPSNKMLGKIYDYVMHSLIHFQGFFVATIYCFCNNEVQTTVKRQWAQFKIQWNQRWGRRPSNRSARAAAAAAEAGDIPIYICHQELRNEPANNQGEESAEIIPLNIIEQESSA
# T1 sequence (O60896 24-148 partner): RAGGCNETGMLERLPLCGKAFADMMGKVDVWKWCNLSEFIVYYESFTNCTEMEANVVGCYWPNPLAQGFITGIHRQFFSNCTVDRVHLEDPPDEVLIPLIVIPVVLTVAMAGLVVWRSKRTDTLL
# Method: d) For flow cytometry studies, AMY3-293 cells were used to determine cell binding and uptake and binding of Cy5-AC253, and Cy5-cAC253 peptides. Cell were plated at a density of 1.5×10^5 cells/well and cultured overnight in 12-well plates at 37° C. Cy5 labelled peptides (5 μM) were added and incubated for 1 hour at 37° C. in serum free media. The culture media was discarded, and cell monolayers were washed with PBS containing 2 mM EDTA and 0.5% BSA adjusted to pH 7.4 at 37° C. Cells were washed again with cold buffer and incubated with 0.25% trypsin to remove cell surface-associated fluorophores. Cells were dispersed in FACS solution (10% FBS in PBS) and analyzed using a FACSCanto II flow cytometer (BD Biosciences, USA) selecting a detection window between 720 and 840 nm. Fluorescence histograms and dot plots were generated using the data were processed with FLOWJO software (Tree Star, Inc, USA). At least 10,000 gated events per sample were analyzed. The experiment was repeated with different peptide concentration ranging from 0.5-10 μM, and mean fluorescence intensity of peptides was extrapolated. To further study the cell uptake mechanism, cells were preincubated with cytochalasin D (cytoD, […]) for 30 minutes, and the experiment was repeated as above. To determine the energy dependent mechanism, cell uptake experiment was undertaken at 4° C., and for the competition experiment, cells was pre-incubated with amylin (30 μM) for 30 minutes, and the experiment was repeated.
# [4] = system: N2a mouse neuroblastoma cells; assay: Aβ1-42 cytotoxicity (MTT) in N2a cells; type: cell-based; conditions: for block of Aβ1-42 triggered cell death, N2a (MTT): Aβ1-42 20 μM
# Method: as §1, §2
# [5] = system: h-Amylin depression of hippocampal LTP; assay: Hippocampal slice electrophysiology, long-term potentiation (LTP); design: species or system mouse; conditions: for reversal of h-Amylin reduction in LTP: 250 nM peptide perfused 5 min prior to 50 nM h-Amylin; for effect of peptide alone on LTP: 250 nM, mouse hippocampal slice
# Method: Brains were quickly removed from mice following decapitation, placed in a cold artificial cerebral spinal fluid (aCSF) on a vibratome chamber, and transverse sections cut through the hippocampus. The aCSF contained (in millimolar 124 NaCl, 3 KCl, 2.4 CaCl2, 2 MgCl2, 1.25 NaH2PO4, 26 NaHCO3, and 10 D-glucose and was equilibrated with 95% 02 and 5% CO2. Hippocampal slices (400-μm thick) were maintained in aCSF-filled holding chamber at room temperature for at least 1 h and individually transferred to the submerged glass bottom recording chamber, which was constantly perfused with aCSF (2 ml/min) at 30° C. Field excitatory postsynaptic potential (fEPSP) was recorded with a metallic (Pt/Ir) electrode (FHC, Bowdoin, Me.) from the stratum radiatum layer of Cornu ammonis 1 region of the hippocampus (CA1) area, and the Schaffer collateral afferents were stimulated with 100-μs test pulses via a bipolar cluster electrode (FHC). For long-term potentiation (LTP) experiments, the stimulus strength was set to elicit 40-50% of the maximum fEPSP amplitude and test pulses were delivered to Schaffer collaterals once every 30 s. LTP was induced by 3-theta-burst stimulation (3-TBS) protocol (each burst consisted of four pulses at 100 Hz with a 200-ms interburst interval). Before 3-TBS or drug application, the responses were monitored for at least 10 min to ensure a stable baseline of fEPSP.
# Soluble oligomeric Aβ1-42, Fragments R5, R10, R11 and h-Amylin were used. Aβ1-42 was purchased from rPeptide, and h-Amylin were purchased from American Peptide. All drugs and chemicals were applied directly to the slice via bath perfusion, which allowed for a complete exchange of the perfusate in less than a minute and a half.
Compound,"block of Aβ1-42 triggered cell death, human fetal neuronal cells (MTT) [1]","block of Aβ1-42 triggered cell death, SK-N-SH (MTT) [2]","flow cytometry binding to HEK293-AMY3 cells ([3]; 37° C., 60 min)","block of Aβ1-42 triggered cell death, N2a (MTT) [4]",reversal of h-Amylin reduction in LTP [5],effect of peptide alone on LTP [5],"attenuation of Aβ1-42 induced cell death, HFNs ([1]; Aβ1-42 10 μM, peptide 10 μM pre-applied, MTT and live-dead assays)",mean fluorescence intensity at 4° C. ([3]; 4° C.),"mean fluorescence intensity, binding and uptake ([3]; Cy5 labeled peptide 5 μM, 60 min, 37° C.)",mean fluorescence intensity after pre-incubation with hAmylin ([3]; hAmylin (30 μM) pre-incubation 30 minutes),mean fluorescence intensity in the presence of cytoD ([3]; preincubation with cytochalasin D),"attenuation of Aβ1-42 induced cell death, N2a ([4]; Aβ1-42 10 μM, peptide 10 μM pre-applied, MTT)"
CC(C)C[C@H](NC(=O)[C@H](CCC(=O)O)NC(=O)[C@H](CCC(N)=O)NC(=O)[C@@H](N)CO)C(=O)N[C@@H](Cc1c[nH]cn1)C(=O)N[C@@H](CCCNC(=N)N)C(=O)N[C@@H](CC(C)C)C(=O)N[C@@H](CCC(N)=O)C(=O)N[C@H](C(=O)N[C@@H](Cc1ccc(O)cc1)C(=O)N1CCC[C@H]1C(=O)N[C@@H](CCCNC(=N)N)C(N)=O)[C@@H](C)O [R5] (H-SQELHRLQTYPR-NH2; N-terminus assumed),block the effect of Aβ1-42,block the effect of Aβ1-42,selective and significant specific binding,block the effect of Aβ1-42,significantly reversed,did not impair LTP,,,,,,
CC(C)C[C@H](NC(=O)[C@H](CCCNC(=N)N)NC(=O)CNC(=O)[C@@H](N)CC(C)C)C(=O)N[C@@H](CO)C(=O)N[C@@H](CCC(N)=O)C(=O)N[C@@H](CCC(=O)O)C(=O)N[C@@H](CC(C)C)C(=O)N[C@@H](Cc1c[nH]cn1)C(=O)N[C@@H](CCCNC(=N)N)C(=O)N[C@@H](CC(C)C)C(=O)N[C@@H](CCC(N)=O)C(=O)N[C@H](C(=O)N[C@@H](Cc1ccc(O)cc1)C(=O)N1CCC[C@H]1C(=O)N[C@@H](CCCNC(=N)N)C(=O)N[C@H](C(=O)N[C@@H](CC(N)=O)C(=O)N[C@H](C(=O)NCC(=O)N[C@@H](CO)C(=O)N[C@@H](CC(N)=O)C(=O)N[C@H](C(=O)N[C@@H](Cc1ccc(O)cc1)C(N)=O)[C@@H](C)O)[C@@H](C)O)[C@@H](C)O)[C@@H](C)O [AC253],,,,,,,attenuated,400±75,1200,500±100,450±50,attenuated
LGRLSQELHRLQTY (LGRLSQELHRLQTY-NH2) [R14],block the effect of Aβ1-42,block the effect of Aβ1-42,selective and significant specific binding,block the effect of Aβ1-42,significantly reversed,did not impair LTP,,,,,,
